# Experiments:
# Experiment in all cases: relative viability (nuclei count vs DMSO), 5 days (fraction); higher = more cells survive
# [1] = compound: CC1=CC(=CC=C1)NC2=NC(=CS2)C3=CC=NC=C3 + COc1cc2c(Oc3ccc(NC(=O)C4(C(=O)Nc5ccc(F)cc5)CC4)cc3F)ccnc2cc1OCCCN1CCOCC1 [Foretinib] (partner 0.25 µM)
# In short: (§1)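 Each reported value is a median over duplicate plates. It expresses relative viability: treated-well nuclei count divided by vehicle-well nuclei count. Lung cancer cell lines in 1536-well plates were dosed by pin tool a day after seeding, alone with one drug or with a fixed anchor-drug dose plus five library-drug doses (not always all listed) in √10 steps, and nuclei were counted after 5 days.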
# [2] = compound: CC1=CC(=CC=C1)NC2=NC(=CS2)C3=CC=NC=C3 + O=C(CCCCCCC(=O)Nc1ccccc1)NO [Vorinostat] (partner 1 µM)
# In short: as §1
# Masitinib + Trametinib = compound: Cc1ccc(NC(=O)c2ccc(CN3CCN(C)CC3)cc2)cc1Nc1nc(-c2cccnc2)cs1 [Masitinib] + CC(=O)Nc1cccc(-n2c(=O)n(C3CC3)c(=O)c3c(Nc4ccc(I)cc4F)n(C)c(=O)c(C)c32)c1 [Trametinib] (partner 0.02 µM)
# In short: as §1
# Masitinib + Navitoclax = compound: Cc1ccc(NC(=O)c2ccc(CN3CCN(C)CC3)cc2)cc1Nc1nc(-c2cccnc2)cs1 [Masitinib] + CC1(C)CCC(c2ccc(Cl)cc2)=C(CN2CCN(c3ccc(C(=O)NS(=O)(=O)c4ccc(N[C@H](CCN5CCOCC5)CSc5ccccc5)c(S(=O)(=O)C(F)(F)F)c4)cc3)CC2)C1 [Navitoclax] (partner 0.5 µM)
# In short: as §1
Cell Line,relative viability ([1]; first compound 0.08 µM),relative viability ([1]; first compound 0.253 µM),relative viability ([1]; first compound 0.8 µM),relative viability ([1]; first compound 2.53 µM),relative viability ([1]; first compound 8 µM),relative viability ([2]; first compound 0.08 µM),relative viability ([2]; first compound 0.253 µM),relative viability ([2]; first compound 0.8 µM),relative viability ([2]; first compound 2.53 µM),relative viability ([2]; first compound 8 µM),relative viability (Masitinib + Trametinib; first compound 0.01 µM),relative viability (Masitinib + Trametinib; first compound 0.03162 µM),relative viability (Masitinib + Trametinib; first compound 0.1 µM),relative viability (Masitinib + Trametinib; first compound 0.3162 µM),relative viability (Masitinib + Trametinib; first compound 1 µM),relative viability (Masitinib + Navitoclax; first compound 0.01 µM),relative viability (Masitinib + Navitoclax; first compound 0.03162 µM),relative viability (Masitinib + Navitoclax; first compound 0.1 µM),relative viability (Masitinib + Navitoclax; first compound 0.3162 µM),relative viability (Masitinib + Navitoclax; first compound 1 µM)
HOP-62,1.08,1.07,1.12,1.15,1.04,0.531,0.605,0.591,0.584,0.595,0.394,0.361,0.349,0.365,0.375,0.93,1.02,0.76,1.11,1.05
LC-2-ad,0.836,–,0.901,0.909,1.07,0.607,0.647,0.688,0.624,0.658,0.92,0.917,0.911,0.941,0.93,0.486,0.412,0.667,0.485,0.408
LCLC-97TM1,0.966,0.906,0.841,1.02,0.929,0.558,0.741,0.623,0.601,0.988,0.184,0.19,0.19,0.231,0.186,0.35,0.42,0.0511,0.639,0.355
LK-2,–,1.18,1.36,–,1.67,0.356,0.307,0.527,0.402,1,0.743,0.783,0.828,0.728,0.748,1.01,0.855,1.06,1.21,0.885
LOU-NH91,0.794,0.853,0.807,0.896,0.903,0.766,0.776,0.887,0.861,0.436,0.756,0.765,0.792,0.732,0.772,0.651,0.653,0.791,0.589,0.673
LU99A,0.807,0.805,0.803,0.915,0.941,0.445,0.601,0.582,0.443,0.479,0.619,0.597,0.624,0.559,0.503,0.755,0.758,0.887,0.97,0.791
LXF-289,0.926,1.03,0.994,0.938,0.823,0.746,0.808,0.801,0.679,0.718,0.638,0.707,0.674,0.747,0.699,0.843,0.927,0.966,0.992,0.934
NCI-H23,1.03,0.963,1.03,0.873,0.895,0.519,0.613,0.596,0.526,0.612,0.305,0.368,0.469,0.375,0.354,0.879,0.789,0.966,0.706,0.872
NCI-H322M,0.788,0.924,0.89,1.01,0.915,0.788,0.759,0.916,0.814,0.95,0.576,0.465,0.519,0.637,0.566,1.18,1.15,1.3,1.22,1.26
NCI-H441,0.754,0.791,1.12,0.857,0.842,0.705,0.955,0.842,0.746,0.76,0.5,0.488,0.547,0.336,0.397,0.782,0.78,0.522,0.749,0.602
NCI-H460,0.915,0.894,0.948,0.924,0.82,0.54,0.536,0.562,0.462,0.395,0.13,0.121,0.139,0.13,0.13,1.22,0.834,1.27,1.33,1.26
NCI-H520,0.773,0.778,0.71,0.647,0.938,0.624,0.694,0.779,0.851,0.838,0.752,0.634,0.873,0.76,0.598,1.21,–,1.17,1.05,1.08
NCI-H596,0.804,0.999,0.728,0.805,0.838,0.552,0.489,0.453,0.529,0.422,0.723,0.691,0.789,0.678,0.732,0.876,0.855,0.86,0.894,0.866
NCI-H647,0.994,1.15,1.03,1.17,1.1,0.576,0.531,0.591,0.498,0.454,0.45,0.381,0.435,0.364,0.411,1.14,1.1,1.08,1.23,1.09
NCI-H727,–,0.837,0.785,0.79,0.71,0.967,–,1.1,–,1.24,0.333,0.375,0.417,0.366,0.334,0.424,0.431,0.385,0.347,0.434
NCI-H838,0.838,0.861,0.923,1.04,0.866,0.64,0.599,0.628,0.582,0.524,0.375,0.425,0.458,0.451,0.488,1.06,0.936,1.14,1.01,1.11

Cell Line,relative viability ([1]; first compound 0.08 µM),relative viability ([1]; first compound 0.253 µM),relative viability ([1]; first compound 0.8 µM),relative viability ([1]; first compound 2.53 µM),relative viability ([1]; first compound 8 µM),relative viability ([2]; first compound 0.08 µM),relative viability ([2]; first compound 0.253 µM),relative viability ([2]; first compound 0.8 µM),relative viability ([2]; first compound 2.53 µM),relative viability ([2]; first compound 8 µM),relative viability (Masitinib + Trametinib; first compound 0.01 µM),relative viability (Masitinib + Trametinib; first compound 0.03162 µM),relative viability (Masitinib + Trametinib; first compound 0.1 µM),relative viability (Masitinib + Trametinib; first compound 0.3162 µM),relative viability (Masitinib + Trametinib; first compound 1 µM),relative viability (Masitinib + Navitoclax; first compound 0.01 µM),relative viability (Masitinib + Navitoclax; first compound 0.03162 µM),relative viability (Masitinib + Navitoclax; first compound 0.1 µM),relative viability (Masitinib + Navitoclax; first compound 0.3162 µM),relative viability (Masitinib + Navitoclax; first compound 1 µM)
NCI-H1355,0.882,0.749,0.663,0.685,0.71,0.521,0.458,0.429,0.403,0.469,0.439,0.35,0.497,0.329,0.468,0.956,0.842,1,0.754,0.946
NCI-H1395,0.859,0.918,0.933,0.958,1,0.618,–,0.804,0.478,0.537,1.01,1.03,1.04,1.11,0.973,1.25,1.17,1.11,1.1,1.05
NCI-H1437,1.16,1.21,1.11,1.27,1.12,0.722,0.732,0.611,0.718,0.362,0.511,0.507,0.52,0.494,0.449,1.07,1.01,1.08,1.1,1.06
NCI-H1650,1.13,1.13,1.04,1.22,1.13,0.587,0.533,0.489,0.51,0.404,0.48,0.54,0.479,0.493,0.527,1.25,0.981,1.15,1.13,1.14
NCI-H1651,0.825,0.736,0.72,0.917,0.862,0.562,0.547,0.569,0.464,0.596,0.776,0.792,0.836,0.901,0.856,1.11,1,1.15,1.02,1.1
NCI-H1666,0.929,0.905,0.81,0.767,0.642,0.622,0.821,0.702,0.79,0.735,0.807,0.893,0.873,0.565,0.788,0.933,0.778,0.915,0.782,0.88
NCI-H1734,0.821,0.84,0.816,0.873,0.794,0.725,0.77,0.782,0.752,0.681,0.682,0.661,0.759,0.696,0.663,0.861,0.779,1,0.933,0.842
NCI-H1755,0.862,0.835,0.823,0.758,0.664,0.621,0.761,0.726,0.611,0.605,0.633,0.83,0.788,0.766,0.699,–,0.975,1.1,0.931,0.894
NCI-H1793,0.65,0.663,0.573,0.64,0.629,0.633,0.616,0.771,0.632,0.8,0.54,0.388,0.407,0.555,0.346,0.456,0.446,0.401,0.41,0.404
NCI-H1915,1.05,1.1,1.06,1.07,0.977,0.442,0.452,0.477,0.501,0.525,–,0.635,–,0.302,0.302,–,0.755,0.717,0.737,0.777
NCI-H1944,0.863,0.85,0.862,0.75,0.777,0.364,0.489,0.529,0.366,0.408,–,0.457,–,0.349,0.368,–,1.02,0.799,1,0.995
NCI-H1975,0.687,0.704,0.837,0.617,0.633,0.656,0.694,0.593,0.707,0.554,0.302,0.364,0.374,0.237,0.323,1.15,1.09,1.14,0.92,1.01
NCI-H1993,0.684,0.635,0.649,0.703,0.669,0.691,0.649,0.726,0.819,0.726,0.483,0.437,0.578,0.508,0.538,0.921,–,0.944,0.651,0.885
NCI-H2009,1.2,1.11,1.14,1.22,1.18,0.624,0.664,0.593,0.642,0.7,0.29,0.239,0.296,0.26,0.268,1.16,1.12,1.16,1.17,1.13
NCI-H2023,0.81,0.712,0.778,1.09,0.681,0.594,0.429,0.689,0.531,0.405,0.509,0.448,0.531,0.518,0.549,1.05,0.981,1.12,0.925,0.92
NCI-H2085,0.903,0.994,0.989,0.95,0.759,0.763,0.763,0.693,0.755,0.645,0.583,0.534,0.556,0.514,0.524,1.1,1.23,1.33,1.16,1.03

# Source: the supplement of paper PMC10307832
